Values of other authors, collected in EP1239867B1, “METHODS FOR TREATING AND PREVENTING DAMAGE TO MUCOSAL TISSUE” (University of Southern California, priority 1999, dated 2005).
Square brackets hold non-standard residues; d marks the D form. Ends that are not written are not given here. Phe(4-NH2) = Nc1ccc(C[C@H](N)C(=O)O)cc1

Test system: AT2 receptor

Row | Substance | binding characteristics (in words) (experimental models of Catalioto et al. 1994, Bryson et al. 1992) | affinity for AT2 than AT1 (times higher) (selectivity AT2 over AT1, Speth and Kim, BBRC 169:997-1006 (1990))
1 | Asp-Arg-Val-Tyr-Ile-Xaa-Pro-Phe (DRVYI[Phe(4-NH2)]PF) [p-aminophenylalanine6-AII] | comparable to AT2 antagonists | –
2 | Asp-Arg-Val-Tyr-Ile-His-Pro-Phe [AII] | – | 100 times
